Experimental data taken from US9718821B2, “Pyridopyrimidinone inhibitors of kinases” (AbbVie Inc., priority 2012, dated 2017).

Target: T1, GST-tagged-Wee1 kinase (Homo sapiens, UniProt P30291)
T1 construct: purchased Carnabio 05-177
Assay: Wee1 time-resolved fluorescence equilibrium binding assay (displacement of Oregon Green-labeled ATP-competitive kinase probe)
Settings: enzyme binding data; GST-tagged-Wee1 kinase 2 nM, fluorescent probe 300 nM, inhibitor 0.003 to 10 micromolar, 1 hour incubation; read-out: Wee-1 binding (Ki nM)
Protocol: Wee1 kinase was assayed using a time-resolved fluorescence equilibrium binding assay monitoring displacement of a rapidly reversible Oregon Green-labeled ATP-competitive kinase probe (N-(2-(2-(2-(4-(4-(5-chloro-4-(2-(1-hydroxycyclobutyl)thiazol-5-yl)-1H-pyrrolo[2,3-b]pyridin-2-yl)phenyl)piperazin-1-yl)ethoxy)ethoxy)ethyl)-2′,7′-difluoro-3′,6′-dihydroxy-3-oxo-3H-spiro[isobenzofuran-1,9′-xanthene]-5-carboxamide) by competitive Wee1 inhibitors.
Table 1 depicts enzyme binding data (Ki)for exemplary compounds.

T1 sequence (P30291 whole entry): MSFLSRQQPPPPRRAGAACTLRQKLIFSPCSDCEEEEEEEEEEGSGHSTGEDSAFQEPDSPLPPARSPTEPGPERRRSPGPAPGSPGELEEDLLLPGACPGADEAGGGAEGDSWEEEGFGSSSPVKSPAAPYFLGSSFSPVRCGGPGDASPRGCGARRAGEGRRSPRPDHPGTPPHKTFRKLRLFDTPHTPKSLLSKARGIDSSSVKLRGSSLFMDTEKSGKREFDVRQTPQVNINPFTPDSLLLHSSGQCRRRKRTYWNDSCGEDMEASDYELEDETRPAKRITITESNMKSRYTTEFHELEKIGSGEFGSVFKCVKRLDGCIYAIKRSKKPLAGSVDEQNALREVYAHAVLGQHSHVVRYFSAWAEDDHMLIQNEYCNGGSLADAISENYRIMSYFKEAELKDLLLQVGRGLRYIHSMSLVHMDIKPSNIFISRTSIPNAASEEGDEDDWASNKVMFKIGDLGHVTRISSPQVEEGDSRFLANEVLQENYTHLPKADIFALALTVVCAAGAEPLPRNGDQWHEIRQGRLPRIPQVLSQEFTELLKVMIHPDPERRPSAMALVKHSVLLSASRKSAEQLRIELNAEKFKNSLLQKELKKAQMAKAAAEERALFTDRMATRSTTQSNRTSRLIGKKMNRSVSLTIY

SMILES | Ki [nM]
CN(C)C1Cc2ccc(Nc3ncc4c(=O)n(-c5c(Cl)cccc5Cl)cc(C(F)F)c4n3)cc2C1 (stereo not drawn) [Example 83, 6-(2,6-dichlorophenyl)-8-(difluoromethyl)-2-{[2-(dimethylamino)-2,3-dihydro-1H-inden-5-yl]amino}pyrido[4,3-d]pyrimidin-5(6H)-one] | 0.2
CC1(C)CNCc2cc(Nc3ncc4c(=O)n(-c5c(Cl)cccc5Cl)cc(CO)c4n3)ccc21 [Example 58, 6-(2,6-dichlorophenyl)-2-[(4,4-dimethyl-1,2,3,4-tetrahydroisoquinolin-7-yl)amino]-8-(hydroxymethyl)pyrido[4,3-d]pyrimidin-5(6H)-one] | 0.1
Cc1cn(-c2c(F)cccc2Cl)c(=O)c2cnc(Nc3ccc(N4CCC(N(C)C)CC4)cc3)nc12 [Example 69, 6-(2-chloro-6-fluorophenyl)-2-({4-[4-(dimethylamino)piperidin-1-yl]phenyl}amino)-8-methylpyrido[4,3-d]pyrimidin-5(6H)-one] | 2.4
Cc1cn(-c2c(Cl)cccc2Cl)c(=O)c2cnc(Nc3ccc(SCCN(C)C)cc3)nc12 [Example 92, 6-(2,6-dichlorophenyl)-2-[(4-{[2-(dimethylamino)ethyl]sulfanyl}phenyl)amino]-8-methylpyrido[4,3-d]pyrimidin-5(6H)-one] | 0.378
Cc1cn(-c2ccccc2-c2cnco2)c(=O)c2cnc(Nc3ccc4c(c3)CNCC4)nc12 [Example 105, 8-methyl-6-[2-(1,3-oxazol-5-yl)phenyl]-2-(1,2,3,4-tetrahydroisoquinolin-7-ylamino)pyrido[4,3-d]pyrimidin-5(6H)-one] | 122
C=Cc1cn(-c2c(Cl)cccc2Cl)c(=O)c2cnc(Nc3ccc4c(c3)CCNC4)nc12 [Example 59, 6-(2,6-dichlorophenyl)-8-ethenyl-2-(1,2,3,4-tetrahydroisoquinolin-6-ylamino)pyrido[4,3-d]pyrimidin-5(6H)-one] | 0.1
O=c1c2cnc(Nc3ccc4c(c3)CNCC43CC3)nc2c(C(F)F)cn1-c1c(Cl)cccc1Cl [Example 86, 6-(2,6-dichlorophenyl)-8-(difluoromethyl)-2-(2′,3′-dihydro-1′H-spiro[cyclopropane-1,4′-isoquinolin]-7′-ylamino)pyrido[4,3-d]pyrimidin-5(6H)-one] | 0.305
Cc1cn(-c2c(Cl)cccc2Cl)c(=O)c2cnc(Nc3ccc(OC4CCN(C)CC4)cc3)nc12 [Example 122, 6-(2,6-dichlorophenyl)-8-methyl-2-({4-[(1-methylpiperidin-4-yl)oxy]phenyl}amino)pyrido[4,3-d]pyrimidin-5(6H)-one] | 0.4
Cc1cn(-c2cccc3ccccc23)c(=O)c2cnc(Nc3ccc(N4CCC(N(C)C)CC4)cc3)nc12 [Example 101, 2-({4-[4-(dimethylamino)piperidin-1-yl]phenyl}amino)-8-methyl-6-(naphthalen-1-yl)pyrido[4,3-d]pyrimidin-5(6H)-one] | 2.8
C=Cc1cn(-c2c(F)cccc2Cl)c(=O)c2cnc(Nc3ccc(N4CCN(C)CC4)cc3)nc12 [Example 62, 6-(2-chloro-6-fluorophenyl)-8-ethenyl-2-{[4-(4-methylpiperazin-1-yl)phenyl]amino}pyrido[4,3-d]pyrimidin-5(6H)-one] | 0.3
Cc1cccc(F)c1-n1cc(C)c2nc(Nc3ccc4c(c3)CNCC4)ncc2c1=O [Example 103, 6-(2-fluoro-6-methylphenyl)-8-methyl-2-(1,2,3,4-tetrahydroisoquinolin-7-ylamino)pyrido[4,3-d]pyrimidin-5(6H)-one] | 0.9
Cc1cn(-c2c(F)cccc2Cl)c(=O)c2cnc(Nc3ccc(N4CCN(C)CC4)cc3)nc12 [Example 66, 6-(2-chloro-6-fluorophenyl)-8-methyl-2-{[4-(4-methylpiperazin-1-yl)phenyl]amino}pyrido[4,3-d]pyrimidin-5(6H)-one] | 0.9
C=Cc1cn(-c2c(F)cccc2Cl)c(=O)c2cnc(Nc3ccc(C4CCN(C)CC4)cc3)nc12 [Example 61, 6-(2-chloro-6-fluorophenyl)-8-ethenyl-2-{[4-(1-methylpiperidin-4-yl)phenyl]amino}pyrido[4,3-d]pyrimidin-5(6H)-one] | 0.3
CN(C)C1CCN(c2ccc(Nc3ncc4c(=O)n(-c5c(Cl)cccc5Cl)cc(CF)c4n3)cc2)CC1 [Example 111, 6-(2,6-dichlorophenyl)-2-({4-[4-(dimethylamino)piperidin-1-yl]phenyl}amino)-8-(fluoromethyl)pyrido[4,3-d]pyrimidin-5(6H)-one] | 0.2
CC(O)c1cn(-c2c(Cl)cccc2Cl)c(=O)c2cnc(Nc3ccc(N4CCN(C)CC4)cc3)nc12 (stereo not drawn) [Example 128, 6-(2,6-dichlorophenyl)-8-(1-hydroxyethyl)-2-{[4-(4-methylpiperazin-1-yl)phenyl]amino}pyrido[4,3-d]pyrimidin-5(6H)-one] | 2
CNC(=O)CSc1ccc(Nc2ncc3c(=O)n(-c4c(Cl)cccc4Cl)cc(C)c3n2)cc1 [Example 114, 2-[(4-{[6-(2,6-dichlorophenyl)-8-methyl-5-oxo-5,6-dihydropyrido[4,3-d]pyrimidin-2-yl]amino}phenyl)sulfanyl]-N-methylacetamide] | 0.8
Cc1cn(-c2c(F)cccc2Cl)c(=O)c2cnc(Nc3ccc4c(c3)CNCC4(C)C)nc12 [Example 73, 6-(2-chloro-6-fluorophenyl)-2-[(4,4-dimethyl-1,2,3,4-tetrahydroisoquinolin-7-yl)amino]-8-methylpyrido[4,3-d]pyrimidin-5(6H)-one] | 1.5
Cc1cn(-c2c(F)cccc2Cl)c(=O)c2cnc(Nc3ccc(C4CCN(C)CC4)cc3)nc12 [Example 71, 6-(2-chloro-6-fluorophenyl)-8-methyl-2-{[4-(1-methylpiperidin-4-yl)phenyl]amino}pyrido[4,3-d]pyrimidin-5(6H)-one] | 1.2
Cc1cn(-c2c(Cl)cccc2Cl)c(=O)c2cnc(Nc3ccc4c(c3)CN(C)CC4(C)C)nc12 [Example 79, 6-(2,6-dichlorophenyl)-8-methyl-2-[(2,4,4-trimethyl-1,2,3,4-tetrahydroisoquinolin-7-yl)amino]pyrido[4,3-d]pyrimidin-5(6H)-one] | 0.4
Cc1cccc(C)c1-n1cc(C)c2nc(Nc3ccc4c(c3)CN(C)CC43CC3)ncc2c1=O [Example 88, 6-(2,6-dimethylphenyl)-8-methyl-2-[(2′-methyl-2′,3′-dihydro-1′H-spiro[cyclopropane-1,4′-isoquinolin]-7′-yl)amino]pyrido[4,3-d]pyrimidin-5(6H)-one] | 0.544
Cc1cn(-c2c(Cl)cccc2Cl)c(=O)c2cnc(Nc3ccc(C4CCN(C)CC4)cc3)nc12 [Example 78, 6-(2,6-dichlorophenyl)-8-methyl-2-{[4-(1-methylpiperidin-4-yl)phenyl]amino}pyrido[4,3-d]pyrimidin-5(6H)-one] | 0.2
Cc1cn(-c2c(F)cccc2Cl)c(=O)c2cnc(Nc3ccc4c(c3)CNCC43CC3)nc12 [Example 74, 6-(2-chloro-6-fluorophenyl)-2-(2′,3′-dihydro-1′H-spiro[cyclopropane-1,4′-isoquinolin]-7′-ylamino)-8-methylpyrido[4,3-d]pyrimidin-5(6H)-one] | 0.6
Cc1cn(-c2c(Cl)cccc2Cl)c(=O)c2nnc(Nc3ccc4c(c3)CN(C)CC43CC3)nc12 [Example 135, 7-(2,6-dichlorophenyl)-5-methyl-3-[(2′-methyl-2′,3′-dihydro-1′H-spiro[cyclopropane-1,4′-isoquinolin]-7′-yl)amino]pyrido[4,3-e][1,2,4]triazin-8(7H)-one] | 5.7
Cc1cccc(C)c1-n1cc(C)c2nc(Nc3ccc(N4CCN(CCCN(C)C)CC4)cc3)ncc2c1=O [Example 139, 2-[(4-{4-[3-(dimethylamino)propyl]piperazin-1-yl}phenyl)amino]-6-(2,6-dimethylphenyl)-8-methylpyrido[4,3-d]pyrimidin-5(6H)-one] | 2.1
C=Cc1cn(-c2c(F)cccc2Cl)c(=O)c2cnc(Nc3ccc(N4CCC(N(C)C)CC4)cc3)nc12 [Example 60, 6-(2-chloro-6-fluorophenyl)-2-({4-[4-(dimethylamino)piperidin-1-yl]phenyl}amino)-8-ethenylpyrido[4,3-d]pyrimidin-5(6H)-one] | 0.5
C=Cc1cn(-c2c(Cl)cccc2Cl)c(=O)c2cnc(Nc3ccc4c(c3)CNCC43CC3)nc12 [Example 51, 6-(2,6-dichlorophenyl)-2-(2′,3′-dihydro-1′H-spiro[cyclopropane-1,4′-isoquinolin]-7′-ylamino)-8-ethenylpyrido[4,3-d]pyrimidin-5(6H)-one] | 0.4
Cc1cccc(Cl)c1-n1cc(C)c2nc(Nc3ccc(N4CCC(N(C)C)CC4)cc3)ncc2c1=O [Example 91, 6-(2-chloro-6-methylphenyl)-2-({4-[4-(dimethylamino)piperidin-1-yl]phenyl}amino)-8-methylpyrido[4,3-d]pyrimidin-5(6H)-one] | 0.22
Cc1cn(-c2c(O)cccc2Cl)c(=O)c2cnc(Nc3ccc4c(c3)CNC4(C)C)nc12 [Example 136, 6-(2-chloro-6-hydroxyphenyl)-2-[(1,1-dimethyl-2,3-dihydro-1H-isoindol-5-yl)amino]-8-methylpyrido[4,3-d]pyrimidin-5(6H)-one] | 0.2
Cc1cn(-c2c(Cl)cccc2Cl)c(=O)c2cnc(Nc3ccc(N4CCN(CCN(C)C)CC4)cc3)nc12 [Example 138, 6-(2,6-dichlorophenyl)-2-[(4-{4-[2-(dimethylamino)ethyl]piperazin-1-yl}phenyl)amino]-8-methylpyrido[4,3-d]pyrimidin-5(6H)-one] | 0.2
C=Cc1cn(-c2c(Cl)cccc2Cl)c(=O)c2cnc(Nc3ccc(N4CCC(N(C)C)CC4)cc3)nc12 [Example 50, 6-(2,6-dichlorophenyl)-2-({4-[4-(dimethylamino)piperidin-1-yl]phenyl}amino)-8-ethenylpyrido[4,3-d]pyrimidin-5(6H)-one] | 0.5
